Test [1] addresses T1, Androgen Receptor, VCaP (AR wild type and amplified) (Homo sapiens, UniProt P10275).
T1 construct: endogenous in cells; host or cells: VCaP
T1 sequence (P10275 1-920): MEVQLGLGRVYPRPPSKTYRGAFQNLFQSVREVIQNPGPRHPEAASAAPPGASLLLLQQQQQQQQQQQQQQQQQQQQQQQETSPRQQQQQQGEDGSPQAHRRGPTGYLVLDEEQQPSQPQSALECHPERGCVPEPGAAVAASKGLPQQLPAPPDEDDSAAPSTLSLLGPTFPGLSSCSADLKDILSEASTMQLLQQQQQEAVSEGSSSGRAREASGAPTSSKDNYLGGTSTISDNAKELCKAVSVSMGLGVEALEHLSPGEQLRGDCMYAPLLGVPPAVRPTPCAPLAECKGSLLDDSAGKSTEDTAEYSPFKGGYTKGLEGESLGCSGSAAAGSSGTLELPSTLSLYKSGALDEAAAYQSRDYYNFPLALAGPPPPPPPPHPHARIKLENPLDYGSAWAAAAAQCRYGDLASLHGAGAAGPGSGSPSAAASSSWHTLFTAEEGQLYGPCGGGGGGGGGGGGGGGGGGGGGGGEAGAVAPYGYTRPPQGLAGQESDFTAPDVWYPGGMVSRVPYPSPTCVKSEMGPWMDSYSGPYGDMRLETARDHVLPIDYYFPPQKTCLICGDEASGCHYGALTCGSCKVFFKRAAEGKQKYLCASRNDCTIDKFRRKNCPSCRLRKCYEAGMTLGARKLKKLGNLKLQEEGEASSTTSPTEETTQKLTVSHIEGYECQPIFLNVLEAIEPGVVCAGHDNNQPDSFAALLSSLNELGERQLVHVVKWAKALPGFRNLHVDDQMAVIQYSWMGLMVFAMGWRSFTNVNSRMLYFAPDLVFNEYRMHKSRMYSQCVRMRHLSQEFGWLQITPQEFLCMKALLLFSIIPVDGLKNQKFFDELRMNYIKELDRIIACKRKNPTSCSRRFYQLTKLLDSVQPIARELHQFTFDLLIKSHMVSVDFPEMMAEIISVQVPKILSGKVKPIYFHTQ
Description: Androgen Receptor Degradation-Imaging Assay, VCaP cell line. The format is cell-based. Conditions: 16 hours treatment, maximum observed degradation. Here is the method: (§1) Degradation of Androgen Receptor (AR) protein in human prostate cancer cell lines (MDA-PCa-2b (AR T878A/L702H), LNCaP (AR T878A), VCaP (AR wild type and amplified) 22RV1 (AR H875Y) and PC3 (AR negative control)) treated with AR PROTACs was quantified using immunofluorescence. Prostate cancer cells were plated (MDA-PCa-2b, and VCaP 16,000 cells/well; LNCaP and 22RV1 32,000 cells/well, and PC3 8,000 cells/well) in an optical bottom 96-well cell culture plate and allowed to attach overnight. The prostate cancer cell lines were treated for 16 hours with a 10-point 3-fold dilution series (dose range=0.02 nM to 333 nM). PC3 is included as an AR negative control and not treated with compound. Cells are fixed and permeabilized with 4% formaldehyde, blocked with 10% goat serum in immunofluorescence (IF) buffer (130 mM NaCl, 7 mM Na2HPO4, 3.5 mM NaH2PO4, 7.7 mM NaN3, 0.1% BSA, 0.2% Triton X, 0.05% Tween 20) prior to overnight incubation with rabbit antibody specific for C terminus of AR (commercially available from RevMaB Biosciences). Following washes with IF buffer, cells were incubated with fluorescent secondary antibody (Goat anti-rabbit Alexa 647; commercially available from Invitrogen) and Hoechst nuclear stain (commercially available from Themo Scientific) prior to quantification of nuclear AR levels via Opera Phenix high-content fluorescent imager using a 40× water objective. Image analysis was performed with Harmony software.
(§2) The averaged nuclear Alexa 647 median fluorescence intensity (MFI) of PC3 cells is subtracted from the nuclear Alexa 647 MFI of PROTAC treated and DMSO control treated cells. % AR remaining is calculated for PROTAC treatments as a percent of the DMSO control (MFI PROTAC treated/MFI DMSO control treated)*100). DC50 and the Dmax values, were obtained from these normalised values fitted with a 4-parameter sigmoidal response curve (Xlfit software). The DC50 is the interpolated concentration of PROTAC corresponding to 50% of the protein being degraded, and the Dmax parameter is the maximum experimentally observed degradation.

For test [2], the target named is T2, Androgen Receptor, MDA-PCa-2b (AR T878A/L702H) (Homo sapiens, UniProt P10275, L702H/T878A).
T2 construct: host or cells: MDA-PCa-2b
T2 sequence (P10275 1-920 L702H/T878A): T1 sequence (P10275 1-920) with L702H, T878A
Description: Androgen Receptor Degradation-Imaging Assay, MDA-PCa-2b cell line. The format is cell-based. Conditions: 16 hours treatment, maximum observed degradation. Here is the method:
as §1, §2

The structures appear in SMILES notation. Positions count from the first letter of the chain named.

For orientation: Dmax means the largest share of the target that was removed. High values mean a fuller loss of target, low ones a partial loss of target.

In the case of `COc1c(C#N)ccc(O[C@H]2C(C)(C)[C@H](NC(=O)c3ccc(N4CCC(CN5CCC(n6ncc7c(N8CCC(=O)NC8=O)cccc76)CC5)CC4)c(F)c3)C2(C)C)c1C` [Example 5, N-((1r,3r)-3-(4-Cyano-3-methoxy-2-methylphenoxy)-2,2,4,4-tetramethylcyclobutyl)-4-(4-((4-(4-(2,4-dioxotetrahydropyrimidin-1(2H)-yl)-1H-indazol-1-yl)piperidin-1-yl)methyl)piperidin-1-yl)-3-fluorobenzamide], the Dmax in test [1] and in test [2] was at least 80% in each case.
For `CC1(C)[C@H](NC(=O)c2ccc(N3CCC(CN4CCC(n5ncc6c(N7CCC(=O)NC7=O)cccc65)CC4)CC3)c(F)c2)C(C)(C)[C@H]1Oc1ccc(C#N)c2ncccc12` [Example 6, N-((1r,3r)-3-((8-Cyanoquinolin-5-yl)oxy)-2,2,4,4-tetramethylcyclobutyl)-4-(4-((4-(4-(2,4-dioxotetrahydropyrimidin-1(2H)-yl)-1H-indazol-1-yl)piperidin-1-yl)methyl)piperidin-1-yl)-3-fluorobenzamide], the Dmax in test [1] and in test [2] was at least 80% throughout.
For `CC1(C)[C@H](NC(=O)c2ccc(N3CCC(CN4CCC(n5ncc6c(N7CCC(=O)NC7=O)cccc65)CC4)CC3)c(F)c2)C(C)(C)[C@H]1Oc1ccc(C#N)c2c1CCCO2` [Example 8, N-((1r,3r)-3-((8-Cyanochroman-5-yl)oxy)-2,2,4,4-tetramethylcyclobutyl)-4-(4-((4-(4-(2,4-dioxotetrahydropyrimidin-1(2H)-yl)-1H-indazol-1-yl)piperidin-1-yl)methyl)piperidin-1-yl)-3-fluorobenzamide], the Dmax in test [1] and in test [2] was at least 80% in each case.
As for `COc1cc(O[C@H]2C(C)(C)[C@H](NC(=O)c3ccc(N4CCC(CN5CCC(n6ncc7c(N8CCC(=O)NC8=O)cccc76)CC5)CC4)cc3)C2(C)C)ccc1C#N` [Example 15, N-((1r,3r)-3-(4-Cyano-3-methoxyphenoxy)-2,2,4,4-tetramethylcyclobutyl)-4-(4-((4-(4-(2,4-dioxotetrahydropyrimidin-1(2H)-yl)-1H-indazol-1-yl)piperidin-1-yl)methyl)piperidin-1-yl)benzamide], the greatest degradation seen (Dmax) in test [1] and in test [2] was at least 80% throughout.
With `COc1cc(O[C@H]2C(C)(C)[C@H](NC(=O)c3ccc(N4CCC(CN5CCC(n6ccc7c(N8CCC(=O)NC8=O)cccc76)CC5)CC4)cc3)C2(C)C)ccc1C#N` [Example 16, N-((1r,3r)-3-(4-Cyano-3-methoxyphenoxy)-2,2,4,4-tetramethylcyclobutyl)-4-(4-((4-(4-(2,4-dioxotetrahydropyrimidin-1(2H)-yl)-1H-indol-1-yl)piperidin-1-yl)methyl)piperidin-1-yl)benzamide], the Dmax in test [1] and in test [2] was at least 80% each time.
With `COc1cc(O[C@H]2C(C)(C)[C@H](NC(=O)c3ccc(N4CCC(CN5CCC(n6ncc7c(N8CCC(=O)NC8=O)nccc76)CC5)CC4)c(F)c3)C2(C)C)ccc1C#N` [Example 20, N-((1r,3r)-3-(4-Cyano-3-methoxyphenoxy)-2,2,4,4-tetramethylcyclobutyl)-4-(4-((4-(4-(2,4-dioxotetrahydropyrimidin-1(2H)-yl)-1H-pyrazolo[4,3-c]pyridin-1-yl)piperidin-1-yl)methyl)piperidin-1-yl)-3-fluorobenzamide], the Dmax in test [1] and in test [2] was at least 80% throughout.
With `CC1(C)[C@H](NC(=O)c2ccc(N3CCC(CN4CCC(n5ccc6c(N7CCC(=O)NC7=O)ncnc65)CC4)CC3)cc2)C(C)(C)[C@H]1Oc1ccc(C#N)c2ncccc12` [Example 28, N-((1r,3r)-3-((8-Cyanoquinolin-5-yl)oxy)-2,2,4,4-tetramethylcyclobutyl)-4-(4-((4-(4-(2,4-dioxotetrahydropyrimidin-1(2H)-yl)-7H-pyrrolo[2,3-d]pyrimidin-7-yl)piperidin-1-yl)methyl)piperidin-1-yl)benzamide], the Dmax in test [1] and in test [2] was at least 80% each time.
Consider `CC1(C)[C@H](NC(=O)c2cc(F)c(N3CCC(CN4CCC(n5ncc6c(N7CCC(=O)NC7=O)cccc65)CC4)CC3)c(F)c2)C(C)(C)[C@H]1Oc1ccc(C#N)c2ncccc12` [Example 30, N-((1r,3r)-3-((8-Cyanoquinolin-5-yl)oxy)-2,2,4,4-tetramethylcyclobutyl)-4-(4-((4-(4-(2,4-dioxotetrahydropyrimidin-1(2H)-yl)-1H-indazol-1-yl)piperidin-1-yl)methyl)piperidin-1-yl)-3,5-difluorobenzamide], for which the Dmax in test [1] and in test [2] was at least 80% throughout.
`CC1(C)[C@H](NC(=O)c2ccc(N3CCC(CN4CCC(n5ccc6c(N7CCC(=O)NC7=O)cccc65)CC4)CC3)c(F)c2)C(C)(C)[C@H]1Oc1ccc(C#N)c2ncccc12` [Example 31, N-((1r,3r)-3-((8-Cyanoquinolin-5-yl)oxy)-2,2,4,4-tetramethylcyclobutyl)-4-(4-((4-(4-(2,4-dioxotetrahydropyrimidin-1(2H)-yl)-1H-indol-1-yl)piperidin-1-yl)methyl)piperidin-1-yl)-3-fluorobenzamide]: the Dmax in test [1] and in test [2] was at least 80% each time.
On to `CC1(C)[C@H](NC(=O)c2ccc(N3CCC(CN4CCC(n5ccc6c(N7CCC(=O)NC7=O)cc(F)cc65)CC4)CC3)c(F)c2)C(C)(C)[C@H]1Oc1ccc(C#N)c2ncccc12` [Example 32, N-((1r,3r)-3-((8-Cyanoquinolin-5-yl)oxy)-2,2,4,4-tetramethylcyclobutyl)-4-(4-((4-(4-(2,4-dioxotetrahydropyrimidin-1(2H)-yl)-6-fluoro-1H-indol-1-yl)piperidin-1-yl)methyl)piperidin-1-yl)-3-fluorobenzamide], for which the Dmax in test [1] and in test [2] was at least 80% each time.

Source of the values: patent US12577231B2, “Androgen receptor PROTACS” (GlaxoSmithKline Intellectual Property Development Limited, priority 2023, dated 2026).
